# Measured values reported in patent US20150125904A1, “PROBE INCORPORATION MEDIATED BY ENZYMES” (Massachusetts Institute of Technology, priority 2012, published 2015).
# Like-named read-outs stand apart in the source and are kept apart here.
# What was measured:
# W37VLplA = W37VLplA (Escherichia coli, UniProt P32099, W38V); settings: 500 μM probe, 500 μM LAP, 30° C.
# Protocol: After 5, 10, 15 and 20 minutes, an aliquot was drawn from the reaction vial, quenched with 30 mM EDTA (final concentration) and the product quantified by HPLC as in Table 3. The plot of product concentration against time was fitted to a linear line whose slope corresponds to the initial velocity. The value of kcat was calculated from the Michaelis-Menten equation Vmax=(kcat)([Enzyme]) at substrate-saturating conditions. Measurements were performed in triplicate.
# [1] = target: T1, WTLplA / LAP-YFP in HEK cells (Escherichia coli, UniProt P32099); assay: Azide ligation yield in cells (native gel shift of LAP-YFP), wild-type LplA; type: cell-based, E. coli
# T1 construct: expressed in transfected cells; host or cells: HEK cells
# T1 sequence (P32099 2-338): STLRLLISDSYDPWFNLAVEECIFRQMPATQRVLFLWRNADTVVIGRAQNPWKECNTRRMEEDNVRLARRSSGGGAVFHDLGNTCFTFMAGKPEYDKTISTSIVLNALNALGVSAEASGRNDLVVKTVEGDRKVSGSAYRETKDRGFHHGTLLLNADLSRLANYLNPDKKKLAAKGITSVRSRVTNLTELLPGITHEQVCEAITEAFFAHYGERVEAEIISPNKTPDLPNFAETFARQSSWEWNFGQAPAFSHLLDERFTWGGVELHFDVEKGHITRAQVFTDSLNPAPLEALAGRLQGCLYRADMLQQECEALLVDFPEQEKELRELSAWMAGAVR
# Protocol: (§1) For azide 7 ligation, cells were transfected with 50 ng WTLplA and 1000 ng pcDNA3-LAP-YFP. For azide 9 ligation, cells were transfected with 500 ng W37ILplA and either 1000 ng pcDNA3-LAP-YFP or pcDNA3-LAP(K⋄A)-YFP using Lipofectamine 2000 (Life Technologies). The LplA:LAP plasmid ratios are identical to the conditions used for imaging. 18 hr after transfection, cells were incubated in growth media (MEM supplemented with 10% FBS) containing 200 μM azide 7 or azide 9 for 30 min or 1 hr at 37° C. Excess azide probe was washed out over 1 hr. […] Cells were then centrifuged at 13,000 rpm for 2 min, and the supernatant was analyzed on a 12% polyacrylamide native gel without SDS (5 μL lysate per lane) at constant 200 V. Prior to Coomassie staining, in-gel fluorescence of YFP was visualized on a FUJIFILM FLA-9000 instrument using LD473 laser and Long Pass Blue (LPB) filter. […]
# (§2) We also used a gel shift assay as a separate readout of azide ligation yield inside cells. […] The yield of azide ligation to LAP-YFP was determined by shift on a native polyacrylamide gel. The unmodified fusion protein, visualized by YFP fluorescence, runs at an apparent molecular weight of ˜42 kD. […]
# W37ILplA [2] = target: T2, W37ILplA (Escherichia coli, UniProt P32099, W38I); assay: Measurement of kcat values for Ald and Hyd ligation; type: biochemical, E. coli; settings: for Vmax / kcat: 1 μM W37ILplA, 600 μM LAP, 500 μM probe
# T2 construct: His6 (N); made in house; host or cells: E. coli
# T2 sequence (P32099 2-338 W38I): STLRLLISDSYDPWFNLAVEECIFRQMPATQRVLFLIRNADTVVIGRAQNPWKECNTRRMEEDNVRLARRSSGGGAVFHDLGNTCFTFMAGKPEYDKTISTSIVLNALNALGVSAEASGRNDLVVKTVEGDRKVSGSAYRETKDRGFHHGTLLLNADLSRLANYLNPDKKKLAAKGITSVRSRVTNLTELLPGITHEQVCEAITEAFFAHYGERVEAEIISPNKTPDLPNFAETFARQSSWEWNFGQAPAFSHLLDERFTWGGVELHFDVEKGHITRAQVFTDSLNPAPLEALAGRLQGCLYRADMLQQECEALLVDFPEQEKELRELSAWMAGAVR
# Protocol: Values of kcat for W37ILplA ligation of the Ald and Hyd probes onto LAP peptide were determined by measuring the initial reaction rates by HPLC. The conditions used were as follows: 1 μM W37ILplA, 600 μM LAP, 500 μM of Ald or Hyd, 2 mM magnesium acetate, and 25 mM sodium phosphate buffer, pH 7.2. Each initial rate was measured in triplicate and the average value reported. The error shown represents ±1 s.d. The equation kcat=Vmax/[E] was used to determine the kcat value.
# W37ILplA [3] = target: T2, W37ILplA; assay: In vitro screening for Ald and Hyd ligation activity (HPLC); type: biochemical, E. coli; settings: 1 μM W37ILplA, 500 μM probe
# Protocol: Ligation reactions were assembled as follows: 1 μM of purified LplA mutant (Uttamapinant, et al., 2010), 150 μM synthetic LAP2 peptide ([…]; SEQ ID NO:4), 5 mM ATP, 500 μM of either Ald or Hyd probe, 5 mM magnesium acetate, and 25 mM Na2HPO4 pH 7.2 in a total volume of 20 μL. Reactions were incubated for 5 to 60 min at 30° C. and then quenched with EDTA to a final concentration of 45 mM. Samples were diluted to a total volume of 80 μL in conjugation buffer (10 mM Na2HPO4, 3.2 mM KH2PO4, 2.7 mM KCl, 140 mM NaCl, pH 5.0) and analyzed on a Varian Prostar HPLC using a reverse-phase C18 Microsorb-MV 100 column (250×4.6 mm). Chromatograms were recorded at 210 nm. For analysis of the aldehyde ligation reaction we used a 10-minute gradient of 30-60% acetonitrile in water with 0.1% trifluoroacetic acid under 1 mL/minute flow rate. For analysis of the hydrazine ligation reaction a gradient of 25-60% over 14 minutes with the same solvents was used. Percent conversions were calculated by dividing the product peak area by the sum of (product+starting material) peak areas. Reactions were performed in triplicate (Ald) or duplicate (Hyd) and the average values are shown. Reactions in FIG. 27C were performed using the conditions above with a 70 minute reaction time for Ald and 120 minute reaction time for Hyd.
# Trp37→Ile LplA = Trp37→Ile LplA (Escherichia coli, UniProt P32099, W38I); settings: 30 min reaction, 500 μM probe; normalized to TCO2/Trp37→Val
# Chain of Trp37→Ile LplA (P32099 2-338 W38I): as above
# Protocol: LplA protein was purified as previously described2 and stored at −80° C. in 20 mM Tris-HCl, pH 7.5 supplementated with 10% v/v glycerol. Reactions were quenched with 30 mM EDTA (final concentration) and resolved by HPLC (Varian ProStar) on a C-18 column using a linear gradient of 25-60% acetonitrile in H2O (with 0.1% v/v trifluoroacetic acid) over 14 minutes. Species were detected at 210 nm absorbance. Peaks corresponding to LAP and its trans-cyclooctene adducts were confirmed by ESI mass spectrometry. The extent of conversion was calculated from ratios of peak areas, neglecting minor extinction coefficient changes to LAP due to trans-cyclooctene ligation.
# The relative abilities of wild-type and mutant ligases to ligate TCO1-3 onto LplA acceptor peptide (LAP) were measured by an HPLC assay after 30 min. reaction time. […] Errors, ±1 s. d.
# [4] = In vitro second-order Diels-Alder cycloaddition rate constant; settings: DPBS, pseudo-first-order approximation
# Protocol: Ligation reaction was allowed to proceed at 30° C. for 4 hours to maximize ligation yield. The mixture was then resolved by preparatory HPLC on a C-18 column (25-45% acetonitrile over 30 min. linear gradient, supplemented with 0.1% v/v trifluoroacetic acid), where the product eluted at 19 min. and its identity confirmed by ESI mass spectrometry. The eluate was freeze-dried into a white powder and dissolved in DPBS for subsequent measurements.
# To measure second-order rate constant by pseudo-first-order approximation, 100 μL Tz1- or Tz2-fluorescein (100 nM in DPBS) was loaded into an opaque, flat-bottom 96-well plate (Greiner Bio One), then mixed with 100 μL LAP-TCO2 (3.3 μM in DPBS). The fluorescence intensity at 520 nm was immediately recorded at 9-second intervals until the reaction reached completion in approximately 5 minutes. The fluorescence intensity was then converted to [tetrazine-fluorescein], assuming that initial fluorescence corresponded to 50 nM and final fluorescence corresponded to 0 nM tetrazine-fluorescein. […] Measurements were performed in triplicate.
# [5] = Tetrazine-dye fluorescence turn-on after Diels-Alder cycloaddition; type: physicochemical; settings: DPBS pH 7.4, >100-fold excess TCO1
# Protocol: Tetrazine-fluorophore conjugates were dissolved in Dulbecco's phosphate buffered saline, pH 7.4 at approximately 100 nM concentration. Solutions with >100-fold excess TCO1 in DMSO or DMSO vehicle alone added were transferred into an opaque, flat-bottom 96-well plate (Greiner Bio One) and their fluorescence emission scanned with a Safire Tecan fluorescence microplate reader. Excitation was fixed at 430 nm for fluorescein, 530 nm for TMR, and 610 nm for Alexa 647. Fold-changes in fluorescence turn-on are reported at respective fluorescence emission maximum wavelengths.
# [6] = tested on: LAP-LDL receptor on HEK cells; assay: Live cell surface fluorogenic labeling without dye washout; type: cell-based, human; settings: 50 nM, without rinsing
# Protocol: After 5 rinses with Tyrode's buffer, the chamber was placed on the microscope objective covered with 200 μL of the same buffer. Image acquisition sequence was initiated immediately after 200 μL of 100 nM Tz1-fluorescein in Tyrode's buffer was added to the chamber, and briefly mixed by pipeting. Final concentration of Tz1-fluorescein was therefore 50 nM after mixing. LAP-LDL receptor and a mCherry fluorescent protein transfection marker were transfected at a 1:1 ratio, with altogether 400 ng plasmid per 1 cm^2 culture.
# To quantify the imaging signal/noise ratio, 17 cells with obvious surface fluorescence (by eye) at the 180 sec. time point were chosen and separate masks created automatically by the Slidebook software over the fluorescent rims. The averaged pixel intensity was defined as “signal”. To measure noise, 10 cells with no obvious surface fluorescence (by eye) at the 180 sec. time point were chosen, and rectangular masks created manually over the interiors of these cells. The averaged (over all 10 masks) pixel intensity was defined as “noise”.
# [7] = target: T3, W37ILplA / LAP-YFP in HEK cells (Escherichia coli, UniProt P32099, W38I); assay: Azide ligation yield in cells (native gel shift of LAP-YFP), W37ILplA; type: cell-based, E. coli
# T3 construct: expressed in transfected cells; host or cells: HEK cells
# T3 sequence (P32099 2-338 W38I): as above
# Protocol: as §1, §2
# W37ILplA [8] = target: T2, W37ILplA; type: biochemical, E. coli
# Protocol: Reactions were quenched with 40 mM EDTA (ethylenediaminetetraacetic acid, final concentration). Percent conversion to LAP-azide adduct was determined by HPLC with a C18 reverse phase column, recording absorbance at 210 nm. Elution conditions were 30-60% acetonitrile in water with 0.1% trifluoroacetic acid over 20 minutes at 1.0 mL/min flow rate. The percent conversion was calculated from the ratio of LAP-azide to sum of (unmodified LAP+LAP-azide). Reactions containing 1 μM LplA enzyme, 500 μM azide 9, and 300 μM LAP peptide were incubated at 30° C. for 2 hours. To determine kinetic measurements, reactions containing 100 nM W37ILplA, 25-700 μM azide 9, and 600 μM LAP peptide were incubated at 30° C., before quenching at various time points with EDTA.
# Reactions were set up as described in the main text. Aliquots were taken and quenched before product conversion exceeded 5%. To calculate initial rates, we determined the amount of product at each time point by generating a calibration curve using purified LAP and LAP-azide 9 mixed at different ratios. This curve correlated the measured ratio of integrated HPLC peak areas to the actual ratio, i.e. adjusted for any differences in extinction coefficient of LAP vs. LAP-azide 9. Initial rates (Vo) were determined at each azide 9 concentration, by plotting the amount of LAP-azide 9 product against time. The slope of the line gives Vo. Vo values were then plotted against azide 9 concentration in FIG. S3C, and Origin 8.5.1 was used to fit the curve to the Michaelis-Menten equation Vo=Vmax[azide 9]/(Km+[azide 9]). From the Vmax, kcat was calculated using Vmax=kcat[E]total. Measurements of Vo values at each azide 9 concentration were performed in triplicate.
# [9] = 100 nM W37ILplA, 600 μM LAP, 30° C.
# Chain of W37VLplA (P32099 2-338 W38V): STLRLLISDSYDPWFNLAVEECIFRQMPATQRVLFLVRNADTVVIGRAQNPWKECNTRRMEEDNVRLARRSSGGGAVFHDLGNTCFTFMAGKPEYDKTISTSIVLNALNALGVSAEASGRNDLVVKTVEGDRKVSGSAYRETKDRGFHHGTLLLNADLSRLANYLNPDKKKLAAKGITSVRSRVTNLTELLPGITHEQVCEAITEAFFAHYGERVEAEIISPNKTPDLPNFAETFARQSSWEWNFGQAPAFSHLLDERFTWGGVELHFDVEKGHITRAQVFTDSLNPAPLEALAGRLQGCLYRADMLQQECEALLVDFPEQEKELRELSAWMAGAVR
compound,measurement,setting,value
"O=C(O)CCCCNC(=O)O[C@H]1CC/C=C/CCC1 (stereo in doubt) [TCO2, rel-(1R-4E-pR)-cyclooct-4-ene-1-yl-N-pentanoic acid carbamate]",Michaelis-Menten kcat of ligation onto LAP,W37VLplA,0.34 ± 0.02 s⁻¹
2-Azidomethyl-4-chloropyridine [Azide 7],"ligation yield in cells, repeat of the experiment",[1]; 50 ng WTLplA plasmid,67%
same,ligation yield in cells,"[1]; 200 μM azide, 1 hour labeling, densitometry",73%
O=Cc1ccc(C(=O)NCCCCC(=O)O)cc1 [Ald],activity of Ald versus Hyd,W37ILplA [2],ten-fold greater activity
same,Vmax,W37ILplA [2],19.7 ± 0.7 µM/min
same,kcat,W37ILplA [2],0.33 ± 0.01 s⁻¹
same,reaction completion,"W37ILplA [3]; 150 μM LAP peptide, 5 minutes",62%
NNc1ccc(C(=O)NCCCCC(=O)O)cn1 [Hyd],Vmax,W37ILplA [2],1.25 ± 0.16 µM/min
same,kcat,W37ILplA [2],0.021 ± 0.003 s⁻¹
same,reaction completion,W37ILplA [3]; 60 min,50%
"O=C(O)CCCNC(=O)O[C@H]1CC/C=C/CCC1 (stereo in doubt) [TCO1, rel-(1R-4E-pR)-cyclooct-4-ene-1-yl-N-butyric acid carbamate]","Ligation efficiency (average, normalized product percentage), Trp37→Ile",Trp37→Ile LplA,0.5 ± 0.4%
Aminobenzyltetrazine carboxyfluorescein [Tz1-fluorescein],second order rate constant for reaction with TCO2-ligated LAP,[4],5000 ± 700 M⁻¹ s⁻¹
same,increase in fluorescein emission upon reaction with excess trans-cyclooctene,[5],13.4 fold
same,time to saturation of signal-to-noise ratio,[6],approximately 3 minutes
"[N-]=[N+]=NCCCCCCCCCC(=O)O [azide 9, 10-azidodecanoic acid]","ligation yield in cells, repeat of the experiment",[7]; 500 ng W37ILplA plasmid,89%
same,ligation yield in cells,"[7]; 200 μM azide, 30 minutes incubation",nearly quantitative
same,Km lower than azide 7 ligation catalyzed by wild-type LplA,W37ILplA [8],4 fold
same,improvement in kcat/Km over azide 7 ligation catalyzed by wild-type LplA,W37ILplA [8],2 fold
same,kcat reduced compared to azide 7 ligation catalyzed by wild-type LplA,W37ILplA [8],1.8 fold
same,Km,W37ILplA [8]; [9],35 µM
same,kcat,W37ILplA [8]; [9],0.0603 s⁻¹
